From patent US10696651B2, “Heterocyclic compound” (Takeda Pharmaceutical Company Limited, priority 2016, dated 2020)
Structures can show the parent of a compound that is named as a salt. Where two headings read alike, the source gives them in different places.

Experiments:
[1] = target: T1, human GCN2 full-length protein (Homo sapiens, UniProt Q9P2K8); assay: GCN2 enzyme inhibition assay (LanthaScreen TR-FRET); format: biochemical; conditions: GCN2 enzyme inhibitory activity at compound concentration of 3 μM, read-out: inhibitory rate
T1 construct: purchased Carna Biosciences, Inc
Method: GCN2 enzyme was preserved at -70° C. and used. The GCN2 enzyme inhibitory activity of the test compound was measured by the LanthaScreenTR-FRET (Time Resolved Fluorescence Resonance Energy Transfer) method (manufactured by ThermoFisher). […] Then, GCN2 enzyme solution diluted with the assay buffer was added by 2 μL to each well. The enzyme solution was not added to a part of the wells to give a control group. After incubation at room temperature for 1 hr, 570 μM ATP solution containing 390 nM […] physiological protein substrate (ThermoFisher) was added by 2 μL. After reaction at room temperature for 1 hr, TR-FRET Dilution Buffer (ThermoFisher) containing 4 nM Terbium-labeled anti-elF2alpha [[…]] antibody (ThermoFisher) dissolved therein was added by 2 μL to each well. After standing at room temperature for 1 hr, time decomposition fluorescence measurement was performed on platereader Envision (manufactured by PerkinElmer).

[2] = test system: osteosarcoma cell line U-2-OS; assay: In vitro cell proliferation inhibition assay (CellTiter-Glo, low amino acid media); format: cell-based; conditions: McCoy's 5A low amino acid media; for inhibition at 0.1 µM: Homo sapiens, U2OS, 72 h, cell proliferation inhibitory rate; for inhibitory rate: 72 hr
Method: A cell suspension (40 μL) (1000 cells/well) of osteosarcoma cell line U-2-OS obtained from ATCC (American Type Culture Collection) was seeded on a 384 plate using McCoy's 5A low amino acid media (amino acid content 25%). The seeded cells were incubated (37° C., 5% CO2) overnight to 24 hr at the longest. Each example compound was dissolved (10 mM) in DMSO, delivered to wells by using TECAN HP D300 (TECAN), and the plate was incubated for 72 hr (37° C., 5% CO2). A well without addition of compound was treated similarly as a control group. Celltiter-Glo (registered trade mark) Luminescent Cell Viability Assay reagent (Promega KK) equilibrated at room temperature was added (40 μL/well) to cells in each well before compound treatment (untreated group) and 72 hours after compound treatment. After incubation for 10 min, cell proliferation inhibitory rate was measured by the amount of ATP which is a cell viability marker. Luminescence of cells showing ATP amount was measured using ARVO MX (PerkinElmer). Based on the luminescence values of the untreatment group, the control group without addition of Example compound solution, and the treatment group with addition of Example compound, the cell proliferation inhibitory rate (%) of the test compound at a compound concentration of 100 nM was calculated by the following formula and the results thereof are shown in Tables 4-1, 4-2. Inhibitory rate (%)=(1−(luminescence value of treatment group−luminescence value of untreatment group)÷(luminescence value of control group−luminescence value of untreatment group))×100

T1 sequence (Q9P2K8 whole entry): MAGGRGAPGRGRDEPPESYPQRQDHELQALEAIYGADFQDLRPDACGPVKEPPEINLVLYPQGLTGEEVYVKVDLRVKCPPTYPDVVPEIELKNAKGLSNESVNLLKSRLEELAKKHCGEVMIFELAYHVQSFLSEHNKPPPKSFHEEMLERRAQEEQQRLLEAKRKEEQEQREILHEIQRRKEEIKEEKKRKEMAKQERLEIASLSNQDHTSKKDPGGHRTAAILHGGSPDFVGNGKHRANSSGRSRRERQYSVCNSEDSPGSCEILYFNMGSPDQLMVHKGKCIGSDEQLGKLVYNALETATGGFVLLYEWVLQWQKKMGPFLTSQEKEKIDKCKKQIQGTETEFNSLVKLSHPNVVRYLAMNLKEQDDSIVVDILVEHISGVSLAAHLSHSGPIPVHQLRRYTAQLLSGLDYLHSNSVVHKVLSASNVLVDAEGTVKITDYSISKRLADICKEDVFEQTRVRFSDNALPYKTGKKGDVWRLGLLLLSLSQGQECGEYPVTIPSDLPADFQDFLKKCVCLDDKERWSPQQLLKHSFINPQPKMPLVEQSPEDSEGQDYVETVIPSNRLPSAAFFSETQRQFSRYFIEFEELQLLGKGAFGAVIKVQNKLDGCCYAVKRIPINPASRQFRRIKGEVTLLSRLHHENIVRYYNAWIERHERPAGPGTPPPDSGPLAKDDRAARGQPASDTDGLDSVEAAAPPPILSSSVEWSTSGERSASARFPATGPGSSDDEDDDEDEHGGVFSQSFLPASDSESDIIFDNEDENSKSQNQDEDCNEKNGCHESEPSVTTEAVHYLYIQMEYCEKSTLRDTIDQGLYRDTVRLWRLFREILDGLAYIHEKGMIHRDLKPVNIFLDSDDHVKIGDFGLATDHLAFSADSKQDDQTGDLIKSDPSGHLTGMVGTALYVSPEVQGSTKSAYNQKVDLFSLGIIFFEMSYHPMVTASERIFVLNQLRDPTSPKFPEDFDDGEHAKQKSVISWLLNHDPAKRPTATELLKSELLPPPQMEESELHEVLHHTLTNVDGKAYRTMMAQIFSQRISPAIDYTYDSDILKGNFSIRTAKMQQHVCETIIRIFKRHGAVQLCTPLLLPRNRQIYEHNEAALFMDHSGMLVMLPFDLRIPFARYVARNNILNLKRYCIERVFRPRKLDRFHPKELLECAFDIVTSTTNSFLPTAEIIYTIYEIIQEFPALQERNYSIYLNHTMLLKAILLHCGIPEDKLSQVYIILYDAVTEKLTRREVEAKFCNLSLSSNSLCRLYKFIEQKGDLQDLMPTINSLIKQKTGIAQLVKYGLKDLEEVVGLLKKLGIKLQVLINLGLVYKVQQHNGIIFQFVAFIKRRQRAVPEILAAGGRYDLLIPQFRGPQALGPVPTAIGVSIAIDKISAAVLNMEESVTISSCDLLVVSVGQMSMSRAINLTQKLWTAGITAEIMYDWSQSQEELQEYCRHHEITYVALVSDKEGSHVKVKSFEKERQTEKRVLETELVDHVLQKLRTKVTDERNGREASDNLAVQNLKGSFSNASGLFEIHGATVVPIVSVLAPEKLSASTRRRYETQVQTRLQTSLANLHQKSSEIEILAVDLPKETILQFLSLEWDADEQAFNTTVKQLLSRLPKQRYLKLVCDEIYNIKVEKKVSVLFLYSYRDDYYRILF

Row | inhibition at 3 µM ([1]; Table 3-1) | Structure (SMILES) | inhibition at 0.1 µM ([2]; Table 4-1) | also measured
1 | 100% | O=S(=O)(Nc1ccc(F)c(C#Cc2cnc3[nH]ncc3c2)c1F)c1cc(Cl)cc(CO)c1Cl [Example 1, 2,5-dichloro-N-(2,4-difluoro-3-(1H-pyrazolo[3,4-b]pyridin-5-ylethynyl)phenyl)-3-(hydroxymethyl)benzenesulfonamide] | 66% | –
2 | 100% | Cc1ncc(Cl)cc1S(=O)(=O)Nc1ccc(F)c(C#Cc2cnc3[nH]ncc3c2)c1F [Example 2, 5-chloro-N-(2,4-difluoro-3-(1H-pyrazolo[3,4-b]pyridin-5-ylethynyl)phenyl)-2-methylpyridine-3-sulfonamide] | 92% | –
3 | 99% | COc1ncc(Cl)cc1S(=O)(=O)Nc1ccc(F)c(C#Cc2cnc3[nH]ncc3c2)c1F [Example 5, 5-chloro-N-(2,4-difluoro-3-(1H-pyrazolo[3,4-b]pyridin-5-ylethynyl)phenyl)-2-methoxypyridine-3-sulfonamide] | 91% | –
4 | 100% | O=S(=O)(Nc1ccc(F)c(C#Cc2cnc3[nH]ncc3c2)c1F)c1cc(Cl)cc2c1OCC2 [Example 8, 5-chloro-N-(2,4-difluoro-3-(1H-pyrazolo[3,4-b]pyridin-5-ylethynyl)phenyl)-2,3-dihydro-1-benzofuran-7-sulfonamide] | 78% | –
5 | 99% | O=S(=O)(Nc1ccc(F)c(C#Cc2cnc3[nH]ncc3c2)c1F)c1cc(Cl)ccc1Cl [Example 10, 2,5-dichloro-N-(2,4-difluoro-3-(1H-pyrazolo[3,4-b]pyridin-5-ylethynyl)phenyl)benzenesulfonamide TFA Salt] | – | inhibitory rate ([2]; Table 4-1, TFA Salt): 63%
6 | 100% | Cc1ccc(Cl)cc1S(=O)(=O)Nc1ccc(F)c(C#Cc2cnc3[nH]ncc3c2)c1F [Example 15, 5-chloro-N-(2,4-difluoro-3-(1H-pyrazolo[3,4-b]pyridin-5-ylethynyl)phenyl)-2-methylbenzenesulfonamide] | 75% | –
7 | 100% | O=S(=O)(Nc1ccc(F)c(C#Cc2cnc3[nH]ncc3c2)c1F)c1cc(Cl)cc(Cl)c1Cl [Example 20, 2,3,5-trichloro-N-(2,4-difluoro-3-(1H-pyrazolo[3,4-b]pyridin-5-ylethynyl)phenyl)benzenesulfonamide] | 63% | –
8 | 99% | O=S(=O)(Nc1ccc(F)c(C#Cc2cnc3[nH]ncc3c2)c1F)c1cc(Cl)cc(Cl)c1 [Example 25, 3,5-dichloro-N-(2,4-difluoro-3-(1H-pyrazolo[3,4-b]pyridin-5-ylethynyl)phenyl)benzenesulfonamide] | 44% | –
9 | 99% | O=S(=O)(Nc1ccc(F)c(C#Cc2cnc3[nH]ncc3c2)c1F)c1cc(Cl)ccc1F [Example 26, 5-chloro-N-(2,4-difluoro-3-(1H-pyrazolo[3,4-b]pyridin-5-ylethynyl)phenyl)-2-fluorobenzenesulfonamide TFA Salt] | 41% | –
10 | 98% | COc1c(Cl)cc(Cl)cc1S(=O)(=O)Nc1ccc(F)c(C#Cc2cnc3[nH]ncc3c2)c1F [Example 33, 3,5-dichloro-N-(2,4-difluoro-3-(1H-pyrazolo[3,4-b]pyridin-5-ylethynyl)phenyl)-2-methoxybenzenesulfonamide] | 40% | –
11 | 99% | O=S(=O)(Nc1ccc(F)c(C#Cc2cnc3[nH]ncc3c2)c1F)c1cccc(Cl)c1Cl [Example 38, 2,3-dichloro-N-(2,4-difluoro-3-(1H-pyrazolo[3,4-b]pyridin-5-ylethynyl)phenyl)benzenesulfonamide TFA Salt] | 22% | –

Continued, compound first:

Row | Structure (SMILES) | inhibition at 3 µM ([1]; Table 3-1) | inhibition at 0.1 µM ([2]; Table 4-1) | also measured
12 | Nc1ncc(C#Cc2c(F)ccc(NS(=O)(=O)c3cc(Cl)ccc3Cl)c2F)cn1 [Example 13, N-(3-((2-aminopyrimidin-5-yl)ethynyl)-2,4-difluorophenyl)-2,5-dichlorobenzenesulfonamide TFA Salt] | – | 70% | –
13 | Nc1ncc(C#Cc2c(F)ccc(NS(=O)(=O)c3cc(Cl)ccc3Cl)c2F)cn1 [Example 17, N-(3-((2-aminopyrimidin-5-yl)ethynyl)-2,4-difluorophenyl)-2,5-dichlorobenzenesulfonamide] | 99% | – | inhibitory rate ([2]; Table 4-1): 73%
14 | Cc1cc(Br)cc(S(=O)(=O)Nc2ccc(F)c(C#Cc3cnc4[nH]ncc4c3)c2F)c1 [Example 18, 3-bromo-N-(2,4-difluoro-3-(1H-pyrazolo[3,4-b]pyridin-5-ylethynyl)phenyl)-5-methylbenzenesulfonamide] | 100% | 63% | –
15 | Cc1ccc(Cl)cc1S(=O)(=O)Nc1ccc(F)c(C#Cc2cnc(N)nc2)c1F [Example 19, N-(3-((2-aminopyrimidin-5-yl)ethynyl)-2,4-difluorophenyl)-5-chloro-2-methylbenzenesulfonamide] | 98% | 87% | –
16 | O=S(=O)(Nc1ccc(F)c(C#Cc2cnc3[nH]ncc3c2)c1F)c1c(Cl)c(Cl)cc(Cl)c1Cl [Example 23, 2,3,5,6-tetrachloro-N-(2,4-difluoro-3-(1H-pyrazolo[3,4-b]pyridin-5-ylethynyl)phenyl)benzenesulfonamide] | 100% | 72% | –
17 | O=S(=O)(Nc1ccc(F)c(C#Cc2cnc3[nH]ncc3c2)c1F)c1cc(Br)ccc1F [Example 24, 5-bromo-N-(2,4-difluoro-3-(1H-pyrazolo[3,4-b]pyridin-5-ylethynyl)phenyl)-2-fluorobenzenesulfonamide TFA Salt] | 99% | 37% | –
18 | Cc1ccc(Cl)cc1S(=O)(=O)Nc1ccc(F)c(C#Cc2cnc(N)c(C)n2)c1F [Example 31, N-(3-((5-amino-6-methylpyrazin-2-yl)ethynyl)-2,4-difluorophenyl)-5-chloro-2-methylbenzenesulfonamide] | 99% | 53% | –
19 | CNc1ncc(C#Cc2c(F)ccc(NS(=O)(=O)c3cc(Cl)ccc3Cl)c2F)cn1 [Example 37, 2,5-dichloro-N-(2,4-difluoro-3-((2-(methylamino)pyrimidin-5-yl)ethynyl)phenyl)benzenesulfonamide TFA Salt] | 98% | 45% | –
20 | COc1c(CO)cc(Cl)cc1S(=O)(=O)Nc1ccc(F)c(C#Cc2cnc(N)nc2)c1F [Example 129, N-(3-((2-aminopyrimidin-5-yl)ethynyl)-2,4-difluorophenyl)-5-chloro-3-(hydroxymethyl)-2-methoxybenzenesulfonamide] | – | – | inhibition at 3 µM ([1]; Table 3-2): 99%; inhibition at 0.1 µM ([2]; Table 4-2): 70%
21 | COc1c(CO)cc(Cl)cc1S(=O)(=O)Nc1ccc(F)c(C#Cc2cnc(N)nn2)c1F [Example 130, N-(3-((3-amino-1,2,4-triazin-6-yl)ethynyl)-2,4-difluorophenyl)-5-chloro-3-(hydroxymethyl)-2-methoxybenzenesulfonamide] | – | – | inhibition at 3 µM ([1]; Table 3-2): 99%; inhibition at 0.1 µM ([2]; Table 4-2): 68%
22 | CCNc1ncc(C#Cc2c(F)ccc(NS(=O)(=O)c3cc(Cl)cc(CO)c3OC)c2F)cn1 [Example 137, 5-chloro-N-(3-((2-(ethylamino)pyrimidin-5-yl)ethynyl)-2,4-difluorophenyl)-3-(hydroxymethyl)-2-methoxybenzenesulfonamide] | – | – | inhibition at 3 µM ([1]; Table 3-2): 99%; inhibition at 0.1 µM ([2]; Table 4-2): 75%
23 | COc1c(CO)cc(Cl)cc1S(=O)(=O)Nc1ccc(F)c(C#Cc2cnc(NCC3(O)CC3)nc2)c1F [Example 154, 5-chloro-N-(2,4-difluoro-3-((2-(((1-hydroxycyclopropyl)methyl)amino)pyrimidin-5-yl)ethynyl)phenyl)-3-(hydroxymethyl)-2-methoxybenzenesulfonamide] | – | – | inhibition at 0.1 µM ([2]; Table 4-2): 70%
24 | C[C@H](CO)Nc1ncc(C#Cc2c(F)ccc(NS(=O)(=O)c3cc(Cl)cc4c3OCC4O)c2F)cn1 (stereo partly drawn) [Example 187, 5-chloro-N-(2,4-difluoro-3-((2-(((2R)-1-hydroxypropan-2-yl)amino)pyrimidin-5-yl)ethynyl)phenyl)-3-hydroxy-2,3-dihydro-1-benzofuran-7-sulfonamide] | – | – | inhibitory rate ([2]; Table 4-2): 64%
25 | Cn1ncc2c(S(=O)(=O)Nc3ccc(F)c(C#Cc4cnc(N)nc4)c3F)cc(Cl)cc21 [Example 192, N-(3-((2-aminopyrimidin-5-yl)ethynyl)-2,4-difluorophenyl)-6-chloro-1-methyl-1H-indazole-4-sulfonamide] | – | – | inhibition at 0.1 µM ([2]; Table 4-2): 43%
